In patent US20180250303A1, “TGF BETA RECEPTOR ANTAGONISTS” (BRISTOL-MYERS SQUIBB COMPANY, priority 2015, published 2018) one finds IC50 data, which are given here for 18 molecules.

The target in one assay is HIS-TGFβR2 WT (Homo sapiens, UniProt P37173). Briefly: HTRF probe displacement assay, TGFβR2 HIS WT. In kind it is binding. The settings on record: 1 nM HIS-TGFβR2 WT, labeled probe at Kd, 1 hour at room temperature. The procedure:
(§1) Compounds were dissolved at 10 mM in dimethylsulfoxide (DMSO) and evaluated at eleven concentrations. IC50 values were derived by non-linear regression analysis.

Another assay addresses T1, HIS-TGFβR1 T204D (Homo sapiens, UniProt P36897, T204D).
T1 sequence (P36897 34-503 T204D): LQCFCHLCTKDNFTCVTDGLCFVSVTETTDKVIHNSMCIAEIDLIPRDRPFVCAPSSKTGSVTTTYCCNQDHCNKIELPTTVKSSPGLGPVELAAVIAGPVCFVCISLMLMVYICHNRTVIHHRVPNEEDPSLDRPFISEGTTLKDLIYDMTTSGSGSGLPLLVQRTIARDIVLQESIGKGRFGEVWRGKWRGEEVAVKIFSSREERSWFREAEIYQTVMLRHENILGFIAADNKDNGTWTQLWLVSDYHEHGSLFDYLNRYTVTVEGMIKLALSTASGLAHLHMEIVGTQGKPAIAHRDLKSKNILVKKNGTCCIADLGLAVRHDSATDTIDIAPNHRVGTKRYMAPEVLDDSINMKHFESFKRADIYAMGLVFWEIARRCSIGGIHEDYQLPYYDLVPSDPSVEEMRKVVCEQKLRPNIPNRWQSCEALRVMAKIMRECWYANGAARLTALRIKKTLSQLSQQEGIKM
Description: HTRF probe displacement assay, TGFβR1 HIS T204D. In kind it is binding. The following applies: 1 nM HIS-TGFβR1 T204D, labeled probe at Kd, 1 hour at room temperature. How it is done:
as §1

SMILES strings stand for the structures. Bounds are passed on as bounds.

HIS-TGFβR2 WT, sequence (P37173 23-567): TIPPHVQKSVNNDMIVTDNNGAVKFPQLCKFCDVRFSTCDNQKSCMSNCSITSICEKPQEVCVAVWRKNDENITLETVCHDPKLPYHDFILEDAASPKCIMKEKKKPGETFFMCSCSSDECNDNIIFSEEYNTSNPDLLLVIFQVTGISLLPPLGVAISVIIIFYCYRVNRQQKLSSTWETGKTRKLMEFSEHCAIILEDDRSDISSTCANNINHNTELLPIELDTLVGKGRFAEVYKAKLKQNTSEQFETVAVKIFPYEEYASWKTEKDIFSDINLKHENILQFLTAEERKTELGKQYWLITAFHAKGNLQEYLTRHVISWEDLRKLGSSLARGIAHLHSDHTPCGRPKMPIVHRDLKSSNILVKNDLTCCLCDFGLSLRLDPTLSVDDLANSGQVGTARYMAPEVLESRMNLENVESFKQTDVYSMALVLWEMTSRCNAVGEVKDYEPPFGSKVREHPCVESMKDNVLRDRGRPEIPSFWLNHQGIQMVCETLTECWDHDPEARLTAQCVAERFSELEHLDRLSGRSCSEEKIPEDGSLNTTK

As to `Fc1cnccc1Nc1nc(-c2cccc(C(F)F)n2)nc2[nH]cnc12` [Example 2, 2-(6-(difluoromethyl)pyridin-2-yl)-N-(3-fluoropyridin-4-yl)-9H-Purin-6-amine], the figures for the half-maximal inhibitory concentration (IC50) on HIS-TGFβR2 WT and on HIS-TGFβR1 T204D were 3100 nM and 0.41 nM, respectively.
Consider `Fc1cnccc1Nc1nc(-c2cccc(C(F)(F)F)n2)nc2[nH]cnc12` [Example 3, N-(3-fluoropyridin-4-yl)-2-(6-(trifluoromethyl)pyridin-2-yl)-9H-Purin-6-amine], for which the IC50 at HIS-TGFβR2 WT was greater than 15000 nM; at HIS-TGFβR1 T204D it was 1.1 nM.
For `Cc1nc(-c2nc(Nc3ccncc3F)c3nc[nH]c3n2)ccc1F` [Example 5, 2-(5-fluoro-6-methylpyridin-2-yl)-N-(3-fluoropyridin-4-yl)-9H-Purin-6-amine], the figures for the IC50 on HIS-TGFβR2 WT and at HIS-TGFβR1 T204D were 2800 nM and 0.36 nM, respectively.
`CC(=O)Nc1cc(Nc2nc(-c3cccc(C)n3)nc3[nH]cnc23)ccn1` [Example 6, N-(4-((2-(6-methylpyridin-2-yl)-9H-Purin-6-yl)amino)pyridin-2-yl)acetamide]: the half-inhibitory concentration (IC50) worked out at 440 nM on HIS-TGFβR2 WT and 0.36 nM at HIS-TGFβR1 T204D.
With `CC(=O)Nc1cc(Nc2nc(-c3cccc(C(F)F)n3)nc3[nH]cnc23)ccn1` [Example 7, N-(4-((2-(6-(difluoromethyl)pyridin-2-yl)-9H-Purin-6-yl)amino)pyridin-2-yl)acetamide], the figures for the IC50 at HIS-TGFβR2 WT and at HIS-TGFβR1 T204D were 520 nM and 0.72 nM, respectively.
`CC(=O)Nc1cc(Nc2nc(-c3cccc(C(F)(F)F)n3)nc3[nH]cnc23)ccn1` [Example 8, N-(4-((2-(6-(trifluoromethyl)pyridin-2-yl)-9H-Purin-6-yl)amino)pyridin-2-yl)acetamide] gave an IC50 at HIS-TGFβR2 WT of 1300 nM.
Take `CC(=O)Nc1cc(Nc2nc(-c3ccccn3)nc3[nH]cnc23)ccn1` [Example 9, N-(4-((2-(pyridin-2-yl)-9H-Purin-6-yl)amino)pyridin-2-yl)acetamide]: the IC50 at HIS-TGFβR2 WT was 140 nM; on HIS-TGFβR1 T204D it was 0.9 nM.
Turning to `CC(=O)Nc1nccc(Nc2nc(-c3cccc(C(F)(F)F)n3)nc3[nH]cnc23)c1F` [Example 12, N-(3-fluoro-4-((2-(6-(trifluoromethyl)pyridin-2-yl)-9H-Purin-6-yl)amino)pyridin-2-yl)acetamide], the IC50 at HIS-TGFβR2 WT is greater than 15000 nM; at HIS-TGFβR1 T204D, 8.9 nM.
`CC(=O)Nc1cc(Nc2nc(-c3cccc(C(F)(F)F)n3)nc3[nH]c(C)nc23)ccn1` [Example 14, N-(4-((8-methyl-2-(6-(trifluoromethyl)pyridin-2-yl)-9H-Purin-6-yl)amino)pyridin-2-yl)acetamide]: the IC50 at HIS-TGFβR2 WT was greater than 15000 nM; on HIS-TGFβR1 T204D, 1.6 nM.
Consider `CC(=O)Nc1cc(Nc2nc(-c3cccc(C(F)(F)F)n3)nc3[nH]c(C)nc23)c(F)cn1` [Example 15, N-(5-fluoro-4-((8-methyl-2-(6-(trifluoromethyl)pyridin-2-yl)-9H-Purin-6-yl)amino)pyridin-2-yl)acetamide], for which the half-inhibitory concentration (IC50) at HIS-TGFβR2 WT was greater than 15000 nM; on HIS-TGFβR1 T204D it was 51 nM.
Consider `Cc1nc2c(Nc3ccncc3F)nc(-c3cccc(C(F)(F)F)n3)nc2[nH]1` [Example 16, N-(3-fluoropyridin-4-yl)-8-methyl-2-(6-(trifluoromethyl)pyridin-2-yl)-9H-Purin-6-amine], for which the IC50 at HIS-TGFβR2 WT was greater than 15000 nM; on HIS-TGFβR1 T204D, 5.3 nM.
As to `CC(=O)Nc1cc(Nc2nc(-c3cccc(C(F)(F)F)n3)nc3[nH]c(C4CC4)nc23)ccn1` [Example 17, N-(4-((8-cyclopropyl-2-(6-(trifluoromethyl)pyridin-2-yl)-9H-Purin-6-yl)amino)pyridin-2-yl)acetamide], the IC50 on HIS-TGFβR2 WT is greater than 15000 nM; on HIS-TGFβR1 T204D it was 1.6 nM.
On to `COC(=O)Nc1cc(Nc2nc(-c3cccc(C(F)(F)F)n3)nc3[nH]cnc23)ccn1` [Example 19, Methyl (4-((2-(6-(trifluoromethyl)pyridin-2-yl)-9H-purin-6-yl)amino)pyridin-2-yl)carbamate], for which the IC50 is greater than 15000 nM on HIS-TGFβR2 WT and 2 nM on HIS-TGFβR1 T204D.
Consider `O=C(Nc1cc(Nc2nc(-c3cccc(C(F)(F)F)n3)nc3[nH]cnc23)ccn1)C1CC1` [Example 20, N-(4-((2-(6-(trifluoromethyl)pyridin-2-yl)-9H-purin-6-yl)amino)pyridin-2-yl)cyclopropanecarboxamide], for which the IC50 at HIS-TGFβR2 WT was 470 nM; on HIS-TGFβR1 T204D it was 0.56 nM.
Regarding `COCC(=O)Nc1cc(Nc2nc(-c3cccc(C(F)(F)F)n3)nc3[nH]cnc23)ccn1` [Example 21, 2-methoxy-N-(4-((2-(6-(trifluoromethyl)pyridin-2-yl)-9H-purin-6-yl)amino)pyridin-2-yl)acetamide], the results for the half-maximal inhibitory concentration (IC50) on HIS-TGFβR2 WT and at HIS-TGFβR1 T204D were greater than 15000 nM and 0.45 nM, respectively.
With `COCCC(=O)Nc1cc(Nc2nc(-c3cccc(C(F)(F)F)n3)nc3[nH]cnc23)ccn1` [Example 22, 3-methoxy-N-(4-((2-(6-(trifluoromethyl)pyridin-2-yl)-9H-purin-6-yl)amino)pyridin-2-yl)propanamide], the results for the IC50 on HIS-TGFβR2 WT and on HIS-TGFβR1 T204D were greater than 15000 nM and 1.1 nM, respectively.
`O=C(CCC(F)(F)F)Nc1cc(Nc2nc(-c3cccc(C(F)(F)F)n3)nc3[nH]cnc23)ccn1` [Example 23, 4,4,4-trifluoro-N-(4-((2-(6-(trifluoromethyl)pyridin-2-yl)-9H-purin-6-yl)amino)pyridin-2-yl)butanamide]: the IC50 at HIS-TGFβR2 WT was greater than 15000 nM; on HIS-TGFβR1 T204D, 0.48 nM.
As to `CC(=O)Nc1cc(Nc2nc(-c3ccc(F)c(C)n3)nc3[nH]cnc23)ccn1` [Example 24, N-(4-((2-(5-fluoro-6-methylpyridin-2-yl)-9H-purin-6-yl)amino)pyridin-2-yl)acetamide], the half-maximal inhibitory concentration (IC50) was determined as 290 nM at HIS-TGFβR2 WT and 0.34 nM on HIS-TGFβR1 T204D.
